Data reported in US5491131A, “Somatostatin-active polypeptide composition” (Applied Research Systems ARS Holding NV, priority 1989, dated 1996).
“Also recorded” adds a separate entry of the source.

Columns and labels:
[1] = test system: rat mesangial cells in culture; assay: Prevention of angiotensin II induced contraction of mesangial cells (cell surface area, CSA); format: cell-based, Wistar rats; conditions: for effect on contractile effect of angiotensin (CSA): preincubation 10 minutes before angiotensin II 10^-8 M
Protocol: (§1) The mesangial cells were obtained after glomeruli isolation by differential sieving (R. P. Misra. Am. J. Clin. Pathol 1972 58 135-139) and collagenase digestion of kidney tissue from Wistar rats. The cell surface area (CSA) was measured using a digital planimeter.
In experiments concerned with the ability of somatostatin to prevent contraction, the mesangial cells were incubated with somatostatin for ten minutes at a concentration of 10^-6 M or 10^-8 M before the addition of angiotensin II (10^-8 M) or hydrogen peroxide (10^-4 M).
(§2) In all these experiments, control cells lacked the addition of somatostatin, angiotensin II or hydrogen peroxide to the buffer.
(§3) Microphotographs were taken at different times and the CSA measured. Each experiment was repeated three times and a total of 8-15 cells were measured for each part of each experiment. The results are expressed as a percentage increase or decrease over the initial CSA, […].

[2] = test system: rat mesangial cells in culture; assay: Reversal of angiotensin II induced contraction of mesangial cells (CSA); format: cell-based, Wistar rats; conditions: FIG. 3
Protocol: as §1
In experiments concerned with the ability of somatostatin to revese contraction, the mesangial cells were incubated for 30 minutes with either angiotensin II or hydrogen peroxide (at the concentrations mentioned above) before somatostatin at a concentration of 10^-6 M or 10^-8 M was added to the cells.
as §2, §3

[3] = somatostatin infusions of 250 to 375 microgrammes; cited from earlier work
[4] = test system: rat mesangial cells in culture; assay: Reversal of hydrogen peroxide induced contraction of mesangial cells (CSA); format: cell-based, Wistar rats; conditions: for effect on CSA of untreated cells: somatostatin alone
Protocol: as §1, §3

[5] = test system: rat mesangial cells in culture; assay: Prevention of hydrogen peroxide induced contraction of mesangial cells (CSA); format: cell-based, Wistar rats; conditions: for effect on hydrogen peroxide induced reduction in CSA: preincubation 10 minutes before hydrogen peroxide 10^-4 M; for change in CSA compared with the control: somatostatin alone
Protocol: as §1, §3

guanylate cyclase = conditions: some cell types; cited from earlier work
[6] = in vivo; cited from earlier work

angiotensin II [contractile stimulus added to mesangial cells at 10^-8 M]
effect on CSA ([1]; angiotensin II 10^-8 M alone, after 30 minutes incubation): significantly reducing the CSA | persistence of induced contraction ([2]; angiotensin II 10^-8 M alone): persisted for 60 minutes

C[C@H](N)C(=O)NCC(=O)N[C@H]1CSSC[C@@H](C(=O)O)NC(=O)[C@H](CO)NC(=O)[C@H]([C@@H](C)O)NC(=O)[C@H](Cc2ccccc2)NC(=O)[C@H]([C@@H](C)O)NC(=O)[C@H](CCCCN)NC(=O)[C@H](Cc2c[nH]c3ccccc23)NC(=O)[C@H](Cc2ccccc2)NC(=O)[C@H](Cc2ccccc2)NC(=O)[C@H](CC(N)=O)NC(=O)[C@H](CCCCN)NC1=O [somatostatin, Somatostatin]
reduction in heart rate [3]: about 10 beats per minute | cell size in microphotographs ([1]; cells pre-treated with somatostatin before addition of angiotensin II, FIG. 12): substantially no change in the size of these cells | effect on contractile effect of angiotensin (CSA) ([1]; somatostatin 10^-6 M, FIG. 1): completely preventing the contractile effect of angiotensin II; also recorded: completely inhibited the contractile effect of angiotensin | effect on contractile effect of angiotensin (CSA) ([1]; somatostatin 10^-8 M, FIG. 2): the same effect occurs | effect in isolation on CSA ([1]; somatostatin alone, 10^-6 M, FIG. 1): no significant effect | cell size in microphotographs ([4]; hydrogen peroxide at t=0, somatostatin added at t=30 minutes, read at t=60 minutes, FIG. 11): relax to almost their original size | reversal of contractile effect of hydrogen peroxide (CSA) ([4]; somatostatin 10^-6 M added 30 minutes after hydrogen peroxide 10^-4 M, read after a further 30 minutes, FIG. 7): reverses contraction; also recorded: CSA returns to normal | reversal of contractile effect of hydrogen peroxide (CSA) ([4]; somatostatin 10^-8 M added 30 minutes after hydrogen peroxide 10^-4 M, FIG. 8): The same effect was demonstrated | effect on CSA of untreated cells ([4]; 10^-6 M, FIG. 7): did not significantly effect CSA | effect on CSA of untreated cells ([4]; 10^-8 M, FIG. 8): did not significantly effect CSA | effect on hydrogen peroxide induced reduction in CSA ([5]; somatostatin 10^-6 M, FIG. 5): equally effective in preventing the contractile effect; also recorded: prevented | effect on hydrogen peroxide induced reduction in CSA ([5]; somatostatin 10^-8 M, FIG. 6): prevented | change in CSA compared with the control ([5]; 10^-6 M, FIG. 5): did not in itself induce any significant change in CSA | change in CSA compared with the control ([5]; 10^-8 M, FIG. 6): did not in itself induce any significant change in CSA | intracellular cGMP concentrations (guanylate cyclase): increase intracellular cGMP concentrations | change in CSA, incubated in isolation ([2]; somatostatin alone, 10^-6 M): did not observe any significant change in CSA | urinary calcium excretion [6]: reduces

OO [hydrogen peroxide]
contraction of cells treated with only hydrogen peroxide ([4]; hydrogen peroxide 10^-4 M alone, t=0 to t=60 minutes, FIGS. 7, 8, 10): remained in a contracted state; also recorded: contracted to a significant degree | effect on CSA ([5]; hydrogen peroxide 10^-4 M alone): significant reduction in CSA
